Patent US20240208961A1, “EIF4E INHIBITORS AND USES THEREOF” (PIC Therapeutics, Inc., priority 2022, published 2024)

How the values were obtained:
ZR-75-1 [1] = test: ZR-75-1 compound screening cell viability, Alamar Blue (Example 6); assay type: cell-based; settings: ZR-75-1 cells, Media 1% FBS, read-out: ZR-75-1 Cell Viability, 4 Days: IC50
ZR-75-1 [2] = test: Cell viability assay, adherent cell line, 5 day Alamar Blue (Example 8): ZR-75-1; assay type: cell-based; settings: ZR-75-1, Breast Cancer Cell Viability
Experimental: Cell viability assays were performed on certain compounds of the disclosure, according to the following procedure.
Cell line specific media conditions used:
The procedure for adherent cell line compound screening was as follows:
• Cells were seeded in 96-well cell culture treated tissue culture plates: ZR-75-1, NIHOVCAR3, T47D, and LOVO cells 4000 cells/well; and HPAFII 3000 cell/well
Day 3: Compound Dilution and Dosing
• 5-fold serial dilution (8 point) of each compound in DMSO 0-25 mM in compound storage plates was prepared (stored at −80° C. if not to be used immediately). • Cells were rinsed with 1% FBS Media (appropriate to cell line as described above) and replaced with 87.5 μL media prior to dosing. HPAFII was screened in normal 10% FBS Media. • DMSO compound dilution series was diluted in 1% FBS media (appropriate to cell line as described above)—2 μL in 248 μL to give an 8× final concentration. • Cells were dosed 12.5 μL/well in triplicate to give final dose curved on cells 0-25 μM. • Media blank 100 μL/well×8 was set up. • All plates were incubated at 37° C.
Day 8: 5 Day Viability Assay
• Alamar Blue viability reagent was added (10 μL per well) and incubated for 3 hours at 37° C. prior to fluorescence detection (Ex560 nm/Em590 nm) on a Varioskan Lux multimode plate reader.
Results from cell viability assays are summarized in Table 23, wherein A represents IC50≤1 μM; B represents 1 μM<IC50≤8 μM; and C represents IC50>8 μM. Blank cells indicate that the compound was not tested in a particular assay.

| Compound | IC50 (ZR-75-1 [1]) [µM] | IC50 (ZR-75-1 [2]) [µM] | IC50 (ZR-75-1 [1]; Homo sapiens, 96 h) [µM] | IC50 (ZR-75-1 [2]; Homo sapiens, 120 h) [µM] |
| --- | --- | --- | --- | --- |
| 2-((4-(cyclopent-1-en-1-yl)-5-isobutylthiazol-2-yl)amino)-5-(thiophen-2-yl)nicotinic acid [Compound I-7] | < 1 | > 8 | – | – |
| COC(=O)c1cc(-c2cccs2)cnc1Nc1nc(C2=CCC(F)(F)CC2)c(CC(C)C)s1 [Compound I-5, methyl 2-((4-(4,4-difluorocyclohex-1-en-1-yl)-5-isobutylthiazol-2-yl)amino)-5-(thiophen-2-yl)nicotinate] | – | – | > 8 | > 8 |
| CC(C)Cc1sc(Nc2ncc(-c3cccs3)cc2C(=O)O)nc1C1CCCC1 [Compound I-6, 2-((4-cyclopentyl-5-isobutylthiazol-2-yl)amino)-5-(thiophen-2-yl)nicotinic acid] | – | – | < 1 | ≤ 1 |
| CC(C)c1sc(Nc2ncc(-c3cccs3)cc2C(=O)O)nc1C1=CCCC1 [Compound I-9] | – | – | < 1 | ≤ 1 |
| CC(C)Cc1sc(Nc2ncc(-c3cccs3)cc2C(=O)O)nc1C1CC1 [Compound I-10] | – | – | 1 to 8 | 1 to 8 |
| O=C(O)c1cc(-c2cccs2)cnc1Nc1nc(C(F)(F)F)cs1 [Compound I-12] | – | – | 1 to 8 | 1 to 8 |
| Cc1nc(Nc2ncc(-c3cccs3)cc2C(=O)O)sc1C [Compound I-14] | – | – | 1 to 8 | 1 to 8 |
| O=C(O)c1cc(-c2cccs2)cnc1Nc1nccs1 [Compound I-15] | – | – | > 8 | > 8 |
| CC(C)c1cnc(Nc2ncc(-c3cccs3)cc2C(=O)O)s1 [Compound I-16] | – | – | > 8 | > 8 |
| Cc1nc(Nc2ncc(-c3cccs3)cc2C(=O)O)sc1CC(C)C [Compound I-17] | – | – | > 8 | > 8 |
| CC(C)Cc1cnc(Nc2ncc(-c3cccs3)cc2C(=O)O)s1 [Compound I-18] | – | – | 1 to 8 | 1 to 8 |
| CC(C)Cc1sc(Nc2ncc(-c3cccs3)cc2C(=O)O)nc1C(F)(F)F [Compound I-22] | – | – | 1 to 8 | 1 to 8 |
| CC(C)c1sc(Nc2ncc(-c3cccs3)cc2C(=O)O)nc1C(C)(C)C [Compound I-25] | – | – | – | 1 to 8 |
| CC(C)Cc1sc(Nc2ncc(-c3cccs3)cc2C(=O)O)nc1C(C)C [Compound I-26] | – | – | – | ≤ 1 |
| CC(C)c1sc(Nc2ncc(-c3cccs3)cc2C(=O)O)nc1C1CCC(F)(F)CC1 [Compound I-31] | – | – | – | 1 to 8 |
